Literature values in patent US20220054659A1, “PSMA-TARGETED PAMAM DENDRIMERS FOR SPECIFIC DELIVERY OF IMAGING, CONTRAST AND THERAPEUTIC AGENTS” (The Johns Hopkins University, priority 2018, published 2022).

Target: PSMA (Homo sapiens, UniProt Q04609)
Sequence (Q04609 whole entry, species assumed): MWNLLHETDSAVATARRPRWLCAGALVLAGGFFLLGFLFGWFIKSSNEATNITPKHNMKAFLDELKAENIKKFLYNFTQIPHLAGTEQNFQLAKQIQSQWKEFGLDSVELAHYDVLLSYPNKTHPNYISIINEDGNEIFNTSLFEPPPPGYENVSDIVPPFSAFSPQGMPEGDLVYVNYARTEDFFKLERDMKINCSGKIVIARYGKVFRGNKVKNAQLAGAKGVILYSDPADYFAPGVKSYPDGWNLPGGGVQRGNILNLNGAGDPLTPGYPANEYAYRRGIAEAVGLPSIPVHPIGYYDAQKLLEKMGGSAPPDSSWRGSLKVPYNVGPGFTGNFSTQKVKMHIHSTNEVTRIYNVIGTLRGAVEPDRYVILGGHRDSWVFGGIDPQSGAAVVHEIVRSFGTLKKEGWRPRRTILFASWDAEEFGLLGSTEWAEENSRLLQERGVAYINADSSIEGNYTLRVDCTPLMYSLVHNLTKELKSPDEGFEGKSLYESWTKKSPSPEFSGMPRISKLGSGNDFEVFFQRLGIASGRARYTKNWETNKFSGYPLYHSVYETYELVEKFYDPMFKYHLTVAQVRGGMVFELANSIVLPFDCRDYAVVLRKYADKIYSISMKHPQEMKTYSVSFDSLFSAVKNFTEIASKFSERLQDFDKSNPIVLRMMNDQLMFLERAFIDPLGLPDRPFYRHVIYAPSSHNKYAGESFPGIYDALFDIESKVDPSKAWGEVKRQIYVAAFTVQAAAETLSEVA

NCCCC[C@H](NC(=O)N[C@@H](CCC(=O)O)C(=O)O)C(=O)O [Lys-Glu-urea]
affinity to PSMA: picomolar
